“Also recorded” adds a separate entry of the source.
What was measured:
[1] = test system: ICAM-1; assay: ICAM-1 IHC in ligated carotid artery; assay type: in vivo, FVB/NJ (FVB) mice; details: 7 days after ligation; percent of positively stained area; mean ± SEM; R1R2 n = 7, control peptide n = 8
Experimental: (§1) Animals were anesthetized with isoflurane inhalation. The left common carotid artery was exposed, dissected free from the surrounding connective tissue and completely ligated with 6-0 silk suture just proximal to the carotid bifurcation. […] 4–10 mice were included in each experimental group.
(§2) Paraffin sections selected from the first mm of the carotid artery in each group were used for immunohistochemistry (IHC). […] Sections were then incubated with appropriate biotinylated secondary antibodies followed by avidin-biotin immunoperoxidase system (Vector Laboratories, Burlingame, CA). Liquid DAB Substrate Chromogen system (Dako, Carpinteria, CA) was used for detection.
(§3) Quantitative IHC analysis was performed on digital images captured with a 20x objective by using Image-Pro Plus software. Data from 3–6 mice for each group were averaged, and the average values ± SEM were shown. For FN, collagen type I, SM-MHC and SM α-actin, color digital images were transformed into gray scale, and the sum of the optical densities from the intima+media area in each section was determined. […] The percent of positive cells is reported as the proliferation index. […] The intima+media region was traced manually. The percent of positively stained area in intima+media to the total traced area was assessed.
(§4) For in vivo experiments, the data are shown as the mean ± SEM. […]

[2] = test system: HUVECs; assay: HUVEC proliferation assay; assay type: cell-based, human; details: at the start of the adhesion assay, versus control peptide; data not shown; in words
Experimental: (§5) Human umbilical vein endothelial cells (HUVECs) and A7r5 SMCs were provided by Resource Center (SB3, NSC 100-2325-B-080-001), National Research Program for Biopharmaceuticals (Hsinchu, Taiwan). HUVECs were maintained in M199 (Life Technologies, Carlsbad, CA) with 25U/ml heparin (Sigma-Aldrich, St. Louis, MO), 10% fetal bovine serum (FBS) and endothelial cell growth supplement (ECGS; Millipore, Billerica, MA). A7r5 SMCs were grown in Dulbecco’s Modified Eagle’s Medium (DMEM) containing high glucose, supplemented with 10% fetal bovine serum. Human U937 cells were grown in RPMI1640 with 10% FBS.
(§6) A7r5 cells and HUVECs were growth-arrested and then stimulated with 10% FBS or 10 ng/ml TNF-αovernight after serum starvation as indicated in the figure legend. Briefly, trypan blue-excluding cells were counted with a hemocytometer, and data were analyzed using GraphPad Prism Software (San Diego, CA) as in previous studies. A second observer performed a similar analysis to verify the initial findings.

[3] = test system: A7r5 SMCs; assay: A7r5 SMC growth study; assay type: cell-based
Experimental: as §5, §6
(§7) For in vivo experiments, the data are shown as the mean ± SEM. For in vitro experiments, the data shown are the means ± SD of a representative experiment, at least 3 independent experiments were performed. One-way ANOVA with post-hoc testing were used for data analysis with GraphPad Prism software (GraphPad, San Diego, CA). If normality test failed, nonparametric Kruskal-Wallis test followed by Dunn's post-hoc test were used. P > 0.05 was not considered significant.
Fig 6 R1R2 reduces SMC proliferation and migration. (A) A7r5 SMC growth study over 96 hours. After serum starvation and treatment with R1R2 or scrambled peptides for 36 hours, cells were stimulated with 10% FBS over 96 hours. Cells were counted at the indicated time in the figure (n = 5). (B) A7r5 SMCs were pretreated with R1R2 or scramble peptide for 36 hours. […] (C) Quantitation of SMC migration in the scratch wound healing assay was performed by subtracting the cell-free area 30 hours after PDGF-BB stimulation from the cell-free area in the beginning (n = 5). * indicates p<0.05 and ** p< 0.01.

[4] = test system: VCAM-1; assay: VCAM-1 IHC in ligated carotid artery; assay type: in vivo, FVB/NJ (FVB) mice; details: 7 days after ligation; percent of positively stained area; mean ± SEM; R1R2 n = 7, control peptide n = 9
Experimental: as §1, §2, §3, §4

[5] = test system: FN; assay: IHC for FN in ligated carotid artery; assay type: in vivo, FVB/NJ (FVB) mice; details: for FN IHC intensity in intima-media area: mean ± SEM
Experimental: as §1, §2, §3, §7

[6] = test system: smooth muscle α-actin (SMAA); assay: IHC for smooth muscle α-actin in ligated carotid artery; assay type: in vivo, FVB/NJ (FVB) mice; details: 7 days post-ligation; mean ± SEM; scrambled n = 6, R1R2 n = 5 (sham 0.232 ± 0.011, n = 5)
Experimental: as §1, §2, §3, §4

[7] = test system: collagen type I; assay: IHC for collagen type I in ligated carotid artery; assay type: in vivo, FVB/NJ (FVB) mice; details: 7 days after surgery; 20 μM peptide in pluronic gel; mean ± SEM; R1R2 n = 6, scrambled n = 6
Experimental: as §1, §2, §3, §4

[8] = test system: collagen type I; details: in vitro; ref [29],[30],[33]; cited from earlier work
Source text: (§8) In order to assess whether inhibiting collagen type I deposition reduces vascular remodeling in an in vivo mouse model, we used the collagen inhibitory peptide R1R2 for this study. The R1R2 peptide is derived from two repeat domains of the bacterial adhesin SFS, and is highly homologous to collagen. […] It is likely that R1R2 blocks collagen type I fibril formation around cells by binding to the collagen-binding domain of FN. To characterize the effects of our synth ...

[9] = test system: collagen-FN binding; details: in vitro; ref [29],[30],[33]; cited from earlier work
Source text: as §8

[10] = test system: smooth muscle cell; details: in vitro; ref [29],[30],[33]; cited from earlier work
Source text: as §8

[11] = test system: FN fibril; details: in vitro; ref [29]; cited from earlier work
Source text: Therefore, we used the experimental group treated with scrambled peptide as the control group. In Fig. 3A and 3B, IHC analysi ... || In vitro studies have shown that FN is required as a scaffold for collagen deposition. Inhibiting FN polymerization with antibodies or inhibitors prevents FN and collagen fibril deposition into the ECM in vitro [27, 31].

[12] = test system: binding of FN to collagen type I; assay: Solid-phase binding assay (competitive ELISA) of FN to collagen; parameters: species or system human FN; rat collagen type I; details: 4 nM FN incubated with peptide at 4°C overnight, then on wells coated with 10 μg/ml collagen I overnight at 37°C; anti-FN/HRP, ABTS, A405
Experimental: Human FN and rat collagen type I for competitive ELISA were purchased from Sigma-Aldrich (St. Louis, MO).
The FN-peptide solutions were added to collagen or BSA-coated wells, and the plates were incubated overnight at 37°C. The wells were washed and a rabbit anti-FN antibody was added for 90 minutes at room temperature. Wells were washed and then incubated with a horseradish peroxidase-conjugated secondary antibody. After washing was completed, peroxidase activity was quantified using 2,2'-azino-bis-(3-ethylbenthiazoline-6-sulfonic acid). Measurements were done at 405 nm (A405) using a SpectraMax M5 microplate reader (Molecular Device, Sunnyvale, CA).
Bound FN was detected with an anti-FN antibody followed by HRP-conjugated secondary antibody, and ABTS as described in Methods. The absorbance at 405nm was quantitated.

## GLNGENQKEPEQGERGEAGPPLSGLSGNNQGRPSLPGLNGENQKEPEQGERGEAGPP [R1R2]
[1]
  ICAM-1 (+) area in intima-media: 11.58 ± 2.387%
[2]
  effect on HUVEC cell number: No significant decrease
[3]; 48–96 hours, in comparison with scrambled peptide, in words
  effect on A7r5 SMC growth: significantly inhibited A7r5 SMC growth after 48–96 hours
[3]; 48hr, 10% FBS after serum starvation and 36 hours peptide treatment, hemocytometer, trypan blue, mean ± SD, n = 5
  A7r5 SMC growth, cell number: 1.5 ± 0.224 x 10^5
[4]
  VCAM-1 (+) area in intima-media: 10.36 ± 1.802%
[5]; 7 and 14 days after ligation, R1R2 vs scrambled peptide, in words
  effect on FN intensity: no significant decrease of FN intensity
[5]; 7 days after ligation, R1R2 n = 6, scrambled n = 6
  FN IHC intensity in intima-media area: 0.153 ± 0.012
[5]; 14 days after ligation, R1R2 n = 7, scrambled n = 7
  FN IHC intensity in intima-media area: 0.309 ± 0.005
[6]
  SMAA IHC staining in intima-media area: 0.214 ± 0.004
[7]
  collagen type I IHC intensity in intima-media area: 0.117 ± 0.007
[8]
  effect on collagen type I deposition: known to inhibit collagen-FN binding, collagen type I deposition
[9]
  effect on collagen-FN binding: known to inhibit collagen-FN binding
[10]
  effect on smooth muscle cell migration: known to inhibit collagen-FN binding, collagen type I deposition, and smooth muscle cell migration in vitro
[11]
  effect on FN fibril deposition/formation: does not affect FN fibril deposition into the ECM; also recorded: does not alter FN fibril formation
[12]
  effect on FN-collagen type I binding: blocked the binding of FN to collagen type I in a dose-dependent manner

Source: paper PMC4326127, “Collagen Inhibitory Peptide R1R2 Mediates Vascular Remodeling by Decreasing Inflammation and Smooth Muscle Cell Activation” (PLoS ONE, 2015)
